These results are taken from article PMC7709805 (Biochemistry (Moscow) Supplement. Series A, Membrane and …, 2020).

Data set [1] relates to macrophages IC-21. Put plainly: Binding of 2-μm non-opsonized latex particles by macrophages. Type of data set: cell-based, mouse.
Data set [2] deals with macrophages IC-21. The format is cell-based, mouse.
The test system of data set [3] is macrophages IC-21. The following applies: peptide at 50 μM, IC-21 cells, 1 h.
For data set [4] the following is noted: concentrations of the order of tens of μM; cited from earlier work.
The next data set has as its system hepatitis C virus. The following applies: in vitro; cited from earlier work.

Where two headings read alike, the source gives them in different places.

Regarding “Ac-EWGMAVLWERNRKLKKDLKVLKMLRT-NH2 [Mut1]”, the “Number of particles per cell, % of the control” value is given as ~ 160 % of the control in the data set with macrophages IC-21 [1] (Mut1 at 2–10 μM, 7 independent experiments) and 134 % of the control in the data set with macrophages IC-21 [2] (peptide at 2 μM, cells not treated with mβCD, representative experiment (Fig. 5)). In addition, in the data set with macrophages IC-21 [1] (number of particles per cell, IC-21, 1 h at 37°C, peptide range 0.5 to 50 μM), the “Concentration range at which maximal stimulatory effect was observed” value is 4 to 5 µM. In addition, the “Phagocytic index relative to control” value with macrophages IC-21 [1] (peptide at 50 μM, 7 independent experiments) is reported as “returned to the control level”. The “Toxic effect on cells” value in the data set on macrophages IC-21 [3] is reported as “did not exert a toxic effect”.
With “methyl-β-cyclodextrin [mβCD, reference compound]”, the “Cell activity, % of the control” value with macrophages IC-21 [2] (3.7 mM mβCD, without a peptide, representative experiment, p < 0.001) is reported as 121 % of the control.
Consider ATVLNYYVWRDNS, for which, in data set [4], the Toxicity result is recorded as “not toxic”.
Regarding SWLRDIWDWICEVLSDFK [C5A], in the data set on hepatitis C virus, the “Suppression of virus production” value is “more than 5 orders of magnitude”.
“Ac-STKLSEMLSELGNMDKASKLSRKLSR-NH2 [Mut2]”: the “Change in the phagocytosis index” value with macrophages IC-21 [1] (concentration range from 0.5 to 50 μM, 6 independent experiments for each peptide) is “did not cause significant changes”. Further, the “Toxic effect on cells” value in the data set with macrophages IC-21 [3] is given as “not toxic”.
Take VLNYYVW: the Toxicity result in data set [4] is “not toxic”.
